Measured values: patent US6960337B2, “Methods and compositions for treating benign gynecological disorders” (Balance Pharmaceuticals, Inc., priority 2002, dated 2005)
Where “and” joins values, the source holds several entries; their conditions need not be identical. Identical values can stand only once. Like-named read-outs stand apart in the source and are kept apart here.

What was measured:
[1] = cited from earlier work
[2] = test system: premenopausal women with uterine leiomyomata; assay: Uterine size (uterine volume calculated from ultrasound dimensions), Example 2; type: in vivo, human
Experimental: (§1) A 12 week study was performed to establish an effective dose of deslorelin for controlling heavy bleeding secondary to uterine leiomyomata. Forty-one women completed the study and are identified as Subject Nos. 1-41. The women were divided into test groups for treatment with intranasal deslorelin as follows:
(§2) An intranasal preparation consisting of deslorelin at the indicated concentration along with sorbitol (61.6 mg/mL), benzalkonium chloride (0.1 mg/mL), and water was prepared according to the procedure of Example 1. The preparation was administered with a commercially available nasal sprayer that delivered a 50 μL spray volume. The preparation was administered by application of 50 μL to each nostril once per day, for a total daily spray volume of 100 μL to give the indicated dose of deslorelin.
(§3) The average age of the premenopausal patients was 42.3, with similar distribution among groups. For one complete menstrual cycle prior to treatment, each woman completed a daily bleeding calendar. Eligible subjects were then treated with deslorelin at the assigned dosage once per day by intranasal application. During the 12 weeks of daily intranasal administration, each woman kept a daily bleeding calendar, completed quality of life questionnaires, and underwent clinical assessment and laboratory testing. The subjects were tracked for 6 weeks post-treatment for further assessment and to document time to recovery of menses after last drug treatment day. Clinical assessments included grading of nasal irritation (Table 3A), determination of uterine size (Table 3B), and serum hormone levels (Table 3C).

[3] = test system: ovarian estrogen and progesterone production; assay: Serum hormone levels, 12 week intranasal deslorelin study (Example 2); type: in vivo, human
Experimental: Testosterone levels are also similar.
as §1, §2, §3

[4] = test system: heavy bleeding secondary to uterine leiomyomata; assay: Bleeding score from daily bleeding calendar (sum of 28 day diary entries; 0 no bleeding, 5 normal flow, 10 or greater menorrhagia), Example 2; type: in vivo, human
Experimental: as §1, §2, §3

[5] = test system: ovarian suppression (serum estradiol and progesterone levels); type: in vivo, human; settings: for Hormone Levels: Progesterone: daily, individual subjects
Experimental: Example 4 describes a study performed in support of the invention where the nasal preparation is similar to that of Example 1, comprised of a GnRH compound, estradiol, and testosterone, was administered to healthy, premenopausal women. Three doses of the GnRH compound deslorelin were tested, 0.5 mg, 1.0 mg, and 2.0 mg. The nasal preparation was administered using a conventional metered nasal spray delivery device. The subjects received two 50 μL sprays, one in each nostril, daily for four weeks. Blood samples were collected prior to drug administration on day 1 of the study, and then at regular intervals throughout day 1. Thereafter, blood samples were collected weekly, until day 29, when blood was collected at scheduled intervals throughout the day. Serum deslorelin, estradiol, testosterone, and progesterone were quantified, and the results are shown in Tables 4A through 4C, below in Example 4.
Nine premenopausal women, ages 20 to 45 years, were recruited and randomly divided into three test groups for a 29 day study. […] The single intranasal administration consisted of a 100 μL dose delivered using a metered nasal spray device as two 50 μL sprays, one in each nostril.
An indwelling intravenous catheter was inserted in an arm vein for withdrawal of blood samples prior to drug administration and at defined intervals post administration (study day 1) of 40, 120, 240, and 480 minutes. Thereafter, weekly blood samples (study days 8, 15, and 22) were collected for determination of serum estradiol, progesterone, testosterone, and deslorelin levels. On study day 29 post administration, blood samples were drawn according to the same regimen on study day 1. After collection, all blood samples were allowed to clot at room temperature, then refrigerated. Within 24 hours of collection, serum was separated and stored frozen at −5° C. until assayed.
Serum levels of estradiol, testosterone, and progesterone were quantitated by sensitive and specific radioimmunoassay methods (Stanczyk, F. Z. et al., Am. J Obstet. Gynecol., 159(6):1540 (1988); Scott et al., Am. J Obstet. Gynecol., 130(7):817 (1978)). Prior to assay of the steroid hormones, serum was extracted with ethyl acetate:hexane (1:1) and for the testosterone assay further purified via Celite™ column chromatography, with 40% toluene to elute the testosterone. Procedural losses were followed by addition of 1000 dpm of the appropriate tritiated internal standard. The sensitivities of the estradiol, testosterone, and progesterone assays were 8 pg/mL, 4 ng/dL, and 10 ng/dL, respectively. […] Intra- and inter-assay coefficients of variation were 5% to 10% and 10% to 15%, respectively. Specificity of the assays was enhanced by eliminating interfering metabolites with extraction and/or chromatography and through the use of highly specific antisera.

[6] = 0.5 mg/day intranasal, Baseline
[7] = 0.5 mg/day intranasal, End of Week 4
[8] = 0.5 mg/day intranasal, End of Week 8
[9] = 0.5 mg/day intranasal, End of Week 12
[10] = 1 mg/day intranasal, End of Week 4
[11] = 1 mg/day intranasal, End of Week 8
[12] = 1 mg/day intranasal, End of Week 12
[13] = 2 mg/day intranasal, End of Week 4
[14] = 2 mg/day intranasal, End of Week 8
[15] = 2 mg/day intranasal, End of Week 12
[16] = 0.5-2.0 mg daily intranasal over the 12 week period

## OC[C@H]1O[C@@H]2O[C@H]3[C@H](O)[C@@H](O)[C@@H](O[C@H]4[C@H](O)[C@@H](O)[C@@H](O[C@H]5[C@H](O)[C@@H](O)[C@@H](O[C@H]6[C@H](O)[C@@H](O)[C@@H](O[C@H]7[C@H](O)[C@@H](O)[C@@H](O[C@H]8[C@H](O)[C@@H](O)[C@@H](O[C@H]9[C@H](O)[C@@H](O)[C@@H](O[C@H]%10[C@H](O)[C@@H](O)[C@@H](O[C@H]1[C@H](O)[C@H]2O)O[C@@H]%10CO)O[C@@H]9CO)O[C@@H]8CO)O[C@@H]7CO)O[C@@H]6CO)O[C@@H]5CO)O[C@@H]4CO)O[C@@H]3CO [δ-cyclodextrin]
[1]
  water solubility (at 25° C., g/100 mL): 8.19 g/100 mL

## CCNC(=O)[C@@H]1CCCN1C(=O)[C@H](CCCN=C(N)N)NC(=O)[C@H](CC(C)C)NC(=O)[C@@H](Cc1c[nH]c2ccccc12)NC(=O)[C@H](Cc1ccc(O)cc1)NC(=O)[C@H](CO)NC(=O)[C@H](Cc1c[nH]c2ccccc12)NC(=O)[C@H](Cc1cnc[nH]1)NC(=O)[C@@H]1CCC(=O)N1 [deslorelin, (pyro)Pro-His-Trp-Ser-Tyr-DTrp-Leu-Arg-Pro-ethylamide]
[2]; 0.5 mg/day intranasal
  Uterine Size, Mean Difference (end of week 12 minus baseline uterine volume): −109.6 cm^3
[2]; 1 mg/day intranasal
  Uterine Size, Mean Difference (end of week 12 minus baseline uterine volume): −63.6 cm^3
[2]; 2 mg/day intranasal
  Uterine Size, Mean Difference (end of week 12 minus baseline uterine volume): −246.5 cm^3
[2]; 0.5, 1.0, 2.0 mg daily intranasal, 12 weeks, said to correlate directly with dose
  uterine volume (summary in words): reduction in uterine volume
[3]; [6]
  Hormone Levels: Estradiol: 173 pg/mL
  Hormone Levels: Progesterone: 641 ng/dL
  Hormone Levels: Testosterone: 24 ng/dL
[3]; [7]
  Hormone Levels: Estradiol: 47 pg/mL
  Hormone Levels: Progesterone: 40 ng/dL
  Hormone Levels: Testosterone: 19 ng/dL
[3]; [8]
  Hormone Levels: Estradiol: 79 pg/mL
  Hormone Levels: Progesterone: 30 ng/dL
  Hormone Levels: Testosterone: 22 ng/dL
[3]; [9]
  Hormone Levels: Estradiol: 66 pg/mL
  Hormone Levels: Progesterone: 37 ng/dL
  Hormone Levels: Testosterone: 23 ng/dL
[3]; 1 mg/day intranasal, Baseline
  Hormone Levels: Estradiol: 123 pg/mL
  Hormone Levels: Progesterone: 480 ng/dL
  Hormone Levels: Testosterone: 26 ng/dL
[3]; [10]
  Hormone Levels: Estradiol: 51 pg/mL
  Hormone Levels: Progesterone: 12 ng/dL
  Hormone Levels: Testosterone: 22 ng/dL
[3]; [11]
  Hormone Levels: Estradiol: 95 pg/mL
  Hormone Levels: Progesterone: 25 ng/dL
  Hormone Levels: Testosterone: 20 ng/dL
[3]; [12]
  Hormone Levels: Estradiol: 30 pg/mL
  Hormone Levels: Progesterone: 10 ng/dL
  Hormone Levels: Testosterone: 16 ng/dL
[3]; 2 mg/day intranasal, Baseline
  Hormone Levels: Estradiol: 184 pg/mL
  Hormone Levels: Progesterone: 337 ng/dL
  Hormone Levels: Testosterone: 34 ng/dL
[3]; [13]
  Hormone Levels: Estradiol: 14 pg/mL
  Hormone Levels: Progesterone: 12 ng/dL
  Hormone Levels: Testosterone: 16 ng/dL
[3]; [14]
  Hormone Levels: Estradiol: 31 pg/mL
  Hormone Levels: Progesterone: 14 ng/dL
  Hormone Levels: Testosterone: 20 ng/dL
[3]; [15]
  Hormone Levels: Estradiol: 30 pg/mL
  Hormone Levels: Progesterone: 13 ng/dL
  Hormone Levels: Testosterone: 20 ng/dL
[3]; [16]
  reduction in serum estradiol levels (summary in words): progressive and dose dependent
  serum progesterone levels (summary in words): progressive suppression with higher dose and longer time
[4]; 0.5 mg/day intranasal, Baseline Score
  Bleeding Score: 10.9
[4]; 0.5 mg/day intranasal, Weeks 1-4
  Bleeding Score: 6.6
[4]; 0.5 mg/day intranasal, Weeks 5-8
  Bleeding Score: 3.5
[4]; 0.5 mg/day intranasal, Weeks 9-12
  Bleeding Score: 2.6
[4]; 1 mg/day intranasal, Baseline Score
  Bleeding Score: 10.8
[4]; 1 mg/day intranasal, Weeks 1-4
  Bleeding Score: 7.8
[4]; 1 mg/day intranasal, Weeks 5-8
  Bleeding Score: 0.4
[4]; 1 mg/day intranasal, Weeks 9-12
  Bleeding Score: 1.7
[4]; 2 mg/day intranasal, Baseline Score
  Bleeding Score: 14.1
[4]; 2 mg/day intranasal, Weeks 1-4
  Bleeding Score: 6.6
[4]; 2 mg/day intranasal, Weeks 5-8
  Bleeding Score: 1.2
[4]; 2 mg/day intranasal, Weeks 9-12
  Bleeding Score: 0.6
[4]; all tested doses (0.5, 1.0, 2.0 mg)
  effectiveness (reduction of bleeding and uterine size), in words: partially or completely effective
[4]; end of the three month study
  bleeding score (summary in words): marked improvement
[5]; 0.5 mg/mL Deslorelin nasal preparation with estradiol and testosterone, Study Day 1, 0 min
  Hormone Levels: Progesterone: 100 ng/dL and 90 ng/dL and 110 ng/dL
[5]; 0.5 mg/mL Deslorelin nasal preparation with estradiol and testosterone, Study Day 8
  Hormone Levels: Progesterone: 90 ng/dL and 50 ng/dL and 110 ng/dL
[5]; 0.5 mg/mL Deslorelin nasal preparation with estradiol and testosterone, Study Day 15
  Hormone Levels: Progesterone: 100 ng/dL and 40 ng/dL
[5]; 0.5 mg/mL Deslorelin nasal preparation with estradiol and testosterone, Study Day 22
  Hormone Levels: Progesterone: 40 ng/dL (2×) and 50 ng/dL
[5]; 0.5 mg/mL Deslorelin nasal preparation with estradiol and testosterone, Study Day 29, 0 min
  Hormone Levels: Progesterone: 100 ng/dL and 60 ng/dL and 70 ng/dL
[5]; 1.0 mg/mL Deslorelin nasal preparation with estradiol and testosterone, Study Day 8
  Hormone Levels: Progesterone: 50 ng/dL (2×) and 80 ng/dL
[5]; 1.0 mg/mL Deslorelin nasal preparation with estradiol and testosterone, Study Day 15
  Hormone Levels: Progesterone: 50 ng/dL and 30 ng/dL and 70 ng/dL
[5]; 1.0 mg/mL Deslorelin nasal preparation with estradiol and testosterone, Study Day 22
  Hormone Levels: Progesterone: 50 ng/dL (2×) and 60 ng/dL
[5]; 1.0 mg/mL Deslorelin nasal preparation with estradiol and testosterone, Study Day 29, 0 min
  Hormone Levels: Progesterone: 60 ng/dL and 40 ng/dL and 100 ng/dL
[5]; 2.0 mg/mL Deslorelin nasal preparation with estradiol and testosterone, Study Day 1, 0 min
  Hormone Levels: Progesterone: 80 ng/dL and 30 ng/dL and 90 ng/dL
[5]; 2.0 mg/mL Deslorelin nasal preparation with estradiol and testosterone, Study Day 8
  Hormone Levels: Progesterone: 50 ng/dL (2×) and 20 ng/dL
[5]; all three deslorelin doses, generally, indicating that women were anovulatory
  Progesterone levels during the treatment interval: less than 80 ng/dL
[5]; in vivo
  Serum levels of estradiol on day 29: 0.014 to 0.103 ng/mL
